Test results taken from patent US10336707B2, “Heterocyclic derivatives modulating activity of certain protein kinases” (EUDENDRON S.R.L., priority 2014, dated 2019).

Columns and labels:
Type in all cases: biochemical
Conditions in all cases: ATP 0.3 μM
[1] = target: T1, TRK-B (Homo sapiens, UniProt Q16620); assay: Radiometric protein kinase assay (33PanQuinase Activity Assay), TRK-B
T1 construct: either as full-length or enzymatically active fragments; purchased ProQinase GmbH (Freiburg, Germany)
Experimental: (§1) A proprietary radiometric protein kinase assay (33PanQuinase® Activity Assay) developed by ProQuinase GmbH (Freiburg, Germany) was used for measuring the kinase activity of selected protein kinases. All assays were performed in FlashPlates™ wells 96 Perkin Elmer (Boston, Mass., USA) in a reaction volume of 50 μl. The reaction mixture was obtained in 4 steps in the following order: • 1. 10 μl of a solution of non-radioactive ATP in water; • 2. 25 μl of assay buffer/[γ-^33P]-ATP mixture • 3. 5 μl of test sample in 10% DMSO • 4. 10 μl of enzyme/substrate mixture
(§2) All protein kinases provided by ProQinase were expressed in Sf9 insect cells or in E. coli as recombinant GST-fusion proteins or His-tagged proteins, either as full-length or enzymatically active fragments. […] Kinases from external vendors (CAR=Carna Biosciences Inc.; INV=Life Technologies (Invitrogen Corporation); MIL=Merck-Millipore (Millipore Corporation), were expressed, purified and quality-controlled by virtue of the vendors readings.
(§3) A stock solution of compound of formula (I) was diluted to 5×10-04M/100% DMSO. […] Incorporation of 33Pi (counting of “cpm”) was determined with a microplate scintillation counter (Microbeta, Wallac). […]
(§4) Based on each 10 corresponding residual activities, IC50 values were calculated using Prism 5.04 for Windows (Graphpad, San Diego, Calif.). […]

[2] = target: T2, ROS (Homo sapiens, UniProt P08922); assay: Radiometric protein kinase assay (33PanQuinase Activity Assay), ROS
T2 construct: either as full-length or enzymatically active fragments; purchased ProQinase GmbH (Freiburg, Germany)
Experimental: as §1, §2, §3, §4

[3] = target: T3, RET V804M (Homo sapiens, UniProt P07949, V804M); assay: Radiometric protein kinase assay (33PanQuinase Activity Assay), RET V804M
T3 construct: either as full-length or enzymatically active fragments; purchased ProQinase GmbH (Freiburg, Germany)
Experimental: as §1, §2, §3, §4

[4] = target: T4, DDR2 T654M (Homo sapiens, UniProt Q16832, T654M); assay: Radiometric protein kinase assay (33PanQuinase Activity Assay), DDR2 T654M
T4 construct: either as full-length or enzymatically active fragments; purchased ProQinase GmbH (Freiburg, Germany)
T4 sequence (Q16832 22-855 T654M): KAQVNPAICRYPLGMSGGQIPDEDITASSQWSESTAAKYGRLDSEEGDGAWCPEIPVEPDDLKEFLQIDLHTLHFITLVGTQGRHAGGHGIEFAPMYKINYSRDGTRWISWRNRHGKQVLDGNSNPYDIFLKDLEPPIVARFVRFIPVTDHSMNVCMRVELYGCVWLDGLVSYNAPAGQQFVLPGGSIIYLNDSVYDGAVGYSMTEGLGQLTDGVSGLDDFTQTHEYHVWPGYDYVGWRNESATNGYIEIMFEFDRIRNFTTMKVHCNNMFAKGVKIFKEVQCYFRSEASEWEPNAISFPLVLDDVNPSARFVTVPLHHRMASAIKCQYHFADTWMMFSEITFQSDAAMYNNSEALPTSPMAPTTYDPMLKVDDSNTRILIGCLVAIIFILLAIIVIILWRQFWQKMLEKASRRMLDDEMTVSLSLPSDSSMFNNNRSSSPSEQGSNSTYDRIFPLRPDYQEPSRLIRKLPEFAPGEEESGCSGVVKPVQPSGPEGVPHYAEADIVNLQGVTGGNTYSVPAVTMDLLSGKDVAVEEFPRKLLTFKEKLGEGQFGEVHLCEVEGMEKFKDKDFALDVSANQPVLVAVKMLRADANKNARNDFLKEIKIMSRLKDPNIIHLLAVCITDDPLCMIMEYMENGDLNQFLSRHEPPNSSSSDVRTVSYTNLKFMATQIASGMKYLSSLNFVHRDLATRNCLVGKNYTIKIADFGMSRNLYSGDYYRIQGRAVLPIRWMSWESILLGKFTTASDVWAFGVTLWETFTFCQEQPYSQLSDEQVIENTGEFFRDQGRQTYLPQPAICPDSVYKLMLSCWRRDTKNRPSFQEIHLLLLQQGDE
Experimental: as §1, §2, §3, §4

T3 sequence (P07949 29-1114 V804M): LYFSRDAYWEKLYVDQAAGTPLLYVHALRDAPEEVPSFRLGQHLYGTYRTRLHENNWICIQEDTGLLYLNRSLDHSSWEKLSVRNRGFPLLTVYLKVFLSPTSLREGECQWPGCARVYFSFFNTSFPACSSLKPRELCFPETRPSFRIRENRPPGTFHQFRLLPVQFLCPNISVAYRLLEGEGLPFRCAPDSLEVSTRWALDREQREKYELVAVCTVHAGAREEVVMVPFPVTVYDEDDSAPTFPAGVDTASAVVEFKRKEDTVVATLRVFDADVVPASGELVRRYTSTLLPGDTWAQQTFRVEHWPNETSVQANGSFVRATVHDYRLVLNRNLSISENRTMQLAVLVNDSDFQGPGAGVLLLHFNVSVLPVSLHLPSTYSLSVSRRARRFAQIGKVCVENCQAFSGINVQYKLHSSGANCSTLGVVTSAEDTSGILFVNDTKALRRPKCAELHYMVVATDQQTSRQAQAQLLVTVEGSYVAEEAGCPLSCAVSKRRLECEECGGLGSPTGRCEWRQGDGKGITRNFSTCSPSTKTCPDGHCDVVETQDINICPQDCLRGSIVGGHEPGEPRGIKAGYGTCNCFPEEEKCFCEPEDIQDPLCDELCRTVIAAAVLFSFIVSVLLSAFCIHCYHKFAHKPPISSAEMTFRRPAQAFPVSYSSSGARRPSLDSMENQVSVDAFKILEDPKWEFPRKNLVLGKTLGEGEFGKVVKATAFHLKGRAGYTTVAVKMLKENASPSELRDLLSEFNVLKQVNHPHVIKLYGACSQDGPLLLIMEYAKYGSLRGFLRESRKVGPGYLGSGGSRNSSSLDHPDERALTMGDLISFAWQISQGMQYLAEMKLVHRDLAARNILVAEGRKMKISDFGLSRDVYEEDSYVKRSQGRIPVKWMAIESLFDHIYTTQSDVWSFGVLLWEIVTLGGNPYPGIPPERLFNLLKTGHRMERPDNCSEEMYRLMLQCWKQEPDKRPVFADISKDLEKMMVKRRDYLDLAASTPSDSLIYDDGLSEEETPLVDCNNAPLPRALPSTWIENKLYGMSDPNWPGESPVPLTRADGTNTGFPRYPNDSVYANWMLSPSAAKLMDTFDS
T2 sequence (P08922 1883-2347 limits assumed): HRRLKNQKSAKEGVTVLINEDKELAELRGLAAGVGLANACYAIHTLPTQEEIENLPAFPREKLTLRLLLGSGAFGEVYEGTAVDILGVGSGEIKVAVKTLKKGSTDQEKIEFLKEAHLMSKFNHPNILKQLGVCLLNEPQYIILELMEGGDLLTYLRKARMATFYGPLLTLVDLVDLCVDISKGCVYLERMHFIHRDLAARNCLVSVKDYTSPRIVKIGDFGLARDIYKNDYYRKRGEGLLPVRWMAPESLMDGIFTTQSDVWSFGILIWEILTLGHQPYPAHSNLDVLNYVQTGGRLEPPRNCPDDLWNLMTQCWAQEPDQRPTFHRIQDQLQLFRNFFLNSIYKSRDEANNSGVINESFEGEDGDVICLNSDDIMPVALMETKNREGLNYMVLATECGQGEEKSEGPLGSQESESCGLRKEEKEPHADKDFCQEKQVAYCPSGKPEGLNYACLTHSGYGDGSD
T1 sequence (Q16620 32-822): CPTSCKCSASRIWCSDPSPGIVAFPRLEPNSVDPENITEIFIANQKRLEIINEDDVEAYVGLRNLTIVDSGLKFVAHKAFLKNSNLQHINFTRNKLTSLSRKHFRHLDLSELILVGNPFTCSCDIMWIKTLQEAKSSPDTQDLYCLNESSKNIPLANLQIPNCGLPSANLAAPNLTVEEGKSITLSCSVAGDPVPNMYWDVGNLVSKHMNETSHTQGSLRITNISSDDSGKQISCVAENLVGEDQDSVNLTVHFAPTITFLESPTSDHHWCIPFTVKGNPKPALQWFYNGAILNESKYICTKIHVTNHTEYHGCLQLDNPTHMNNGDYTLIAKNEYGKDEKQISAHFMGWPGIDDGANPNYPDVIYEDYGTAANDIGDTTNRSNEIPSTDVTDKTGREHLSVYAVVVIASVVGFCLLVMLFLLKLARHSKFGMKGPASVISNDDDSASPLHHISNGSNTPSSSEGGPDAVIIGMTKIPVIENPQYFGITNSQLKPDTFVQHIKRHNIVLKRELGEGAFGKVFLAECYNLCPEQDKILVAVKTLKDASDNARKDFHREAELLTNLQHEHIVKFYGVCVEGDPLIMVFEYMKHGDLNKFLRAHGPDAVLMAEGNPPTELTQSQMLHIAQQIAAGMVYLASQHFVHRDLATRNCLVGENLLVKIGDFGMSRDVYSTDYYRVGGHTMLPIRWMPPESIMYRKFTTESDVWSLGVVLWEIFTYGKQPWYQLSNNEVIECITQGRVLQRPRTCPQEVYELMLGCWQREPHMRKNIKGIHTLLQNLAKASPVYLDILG

Which IC50 [1] does the source give for `CN1CCN(c2ccc(C(=O)Nc3n[nH]c4cc(-c5ccc(O)cc5)c(Cc5cc(F)cc(F)c5)cc34)c(NC3CCOCC3)c2)CC1` [Example 3, N-[5-[(3,5-difluorophenyl)methyl]-6-(4-hydroxyphenyl)-1H-indazol-3-yl]-4-(4-methylpiperazin-1-yl)-2-(tetrahydropyran-4-ylamino)benzamide] here?
Its IC50 is 0.088 µM.

And the IC50 [2]?
Its IC50 is 0.16 µM.

What about the IC50 [3] of the same compound?
Its IC50 is 0.085 µM.

What about the IC50 [4] of the same compound?
The IC50 was 0.084 µM.
